Tested on: galactosidase
Assay: enzymatic reaction with galactosidase, product measured
Assay type: biochemical
Conditions: 0.5 ng/ml galactosidase, 1 hour
Procedure: When a solution of 20 ng/ml of HVG and 0.5 ng/ml of galactosidase in a 10 mmol/L phosphate buffer (pH 7.3) containing 5% (v/v) of methanol and 1 mmol of magnesium chloride was prepared and was reacted at 37° C. for 1 hour, 0.532 ng/ml of HV was then produced. […] It was found from this example that HVG has the same level of enzymatic susceptibility as p-nitrophenylgalactoside which is known as a good substrate for galactosidases.

Row | HV produced from substrate (20 ng/ml HVG, 10 mmol/L phosphate buffer pH 7.3, 5% methanol, MgCl2, 37° C.) [ng/mL] | p-nitrophenol produced from substrate (substrate in place of HVG, phosphate buffer pH 7.3, 37° C.) [ng/mL] | SMILES
1 | 0.532 | – | COc1ccc(CCN(C)CCCC(C(=O)Nc2ccc(O[C@@H]3OC(CO)[C@H](O)[C@@H](O)C3O)cc2)(c2ccc(OC)c(OC)c2)C(C)C)cc1OC (some centres unmarked) [HVG]
2 | – | 0.532 | O=[N+]([O-])c1ccc(O[C@@H]2O[C@H](CO)[C@H](O)[C@H](O)[C@H]2O)cc1 [p-Nitrophenyl galactoside]
